# Target: P. falciparum apicoplast DNA polymerase (Pf-apPOL) (Plasmodium falciparum, UniProt Q8ILY1)
# Assay: Fluorescence-based high-throughput DNA polymerase assay (molecular beacon), primary screen and dose-response;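 for % inhibition ApPOL 90': test concentration in µM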;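 for % inhibition apPOL 180': test concentration in µM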
# Format: biochemical
# In short: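 Single-point screening used 10 µM compound with 20 nM polymerase, 20 nM hairpin substrate and 6 µM dNTPs for 90 min at 25 °C. Confirmatory titrations (2.5–80 µM) followed fluorescence at three times, and IC50 was derived from a fit including a cooperativity term n.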
# Chain of P. falciparum apicoplast DNA polymerase (Pf-apPOL) (Q8ILY1 entry or part of it): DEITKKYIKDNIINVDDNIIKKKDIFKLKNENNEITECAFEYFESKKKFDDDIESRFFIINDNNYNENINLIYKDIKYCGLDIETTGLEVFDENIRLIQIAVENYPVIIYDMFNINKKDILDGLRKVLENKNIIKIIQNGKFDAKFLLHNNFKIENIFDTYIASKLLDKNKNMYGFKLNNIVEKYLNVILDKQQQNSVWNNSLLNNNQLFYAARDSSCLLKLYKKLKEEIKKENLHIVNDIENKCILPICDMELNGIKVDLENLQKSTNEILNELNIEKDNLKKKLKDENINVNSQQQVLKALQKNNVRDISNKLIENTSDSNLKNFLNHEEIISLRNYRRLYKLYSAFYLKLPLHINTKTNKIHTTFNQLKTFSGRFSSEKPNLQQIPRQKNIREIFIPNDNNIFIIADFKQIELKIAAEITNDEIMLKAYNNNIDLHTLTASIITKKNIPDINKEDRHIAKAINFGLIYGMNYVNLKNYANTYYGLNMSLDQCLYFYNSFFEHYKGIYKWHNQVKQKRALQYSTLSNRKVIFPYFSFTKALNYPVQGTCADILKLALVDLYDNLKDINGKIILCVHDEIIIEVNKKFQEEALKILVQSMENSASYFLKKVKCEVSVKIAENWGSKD
compound,measurement,setting,value
CSCCC(C)(O)CNC(=O)C1CC1 (stereo not drawn) [KU0200150],DNA Pol,"'DNA Pol'; screening value, unit not given; 90 min, 10 µM",33
same,% inhibition Apo pol 10',DRC-1; 10'; concentration 2.5,4.373%
same,% inhibition Apo pol 10',DRC-1; 10'; concentration 5,5.1384%
same,% inhibition Apo pol 10',DRC-1; 10'; concentration 10,19.1529%
same,% inhibition Apo pol 10',DRC-1; 10'; concentration 20,27.3456%
same,% inhibition Apo pol 10',DRC-1; 10'; concentration 40,40.4484%
same,% inhibition Apo pol 10',DRC-1; 10'; concentration 80,39.3482%
same,% inhibition Apol 90',DRC-1; 90'; concentration 2.5,7.582%
same,% inhibition Apol 90',DRC-1; 90'; concentration 5,12.5551%
same,% inhibition Apol 90',DRC-1; 90'; concentration 10,30.4266%
same,% inhibition Apol 90',DRC-1; 90'; concentration 20,38.5831%
same,% inhibition Apol 90',DRC-1; 90'; concentration 40,51.9729%
same,% inhibition Apol 90',DRC-1; 90'; concentration 80,47.9472%
same,% inhibition apPOL 180',DRC-1; 180'; concentration 2.5,8.962%
same,% inhibition apPOL 180',DRC-1; 180'; concentration 5,14.7367%
same,% inhibition apPOL 180',DRC-1; 180'; concentration 10,36.1682%
same,% inhibition apPOL 180',DRC-1; 180'; concentration 20,43.4388%
same,% inhibition apPOL 180',DRC-1; 180'; concentration 40,54.9454%
same,% inhibition apPOL 180',DRC-1; 180'; concentration 80,46.3242%
same,% inhibition Apo pol 5',"DRC-2, 5', concentration 2.5",0.182%
same,% inhibition Apo pol 5',"DRC-2, 5', concentration 5",4.75%
same,% inhibition Apo pol 5',"DRC-2, 5', concentration 10",22%
same,% inhibition Apo pol 5',"DRC-2, 5', concentration 20",24%
same,% inhibition Apo pol 5',"DRC-2, 5', concentration 40",29%
same,% inhibition Apo pol 5',"DRC-2, 5', concentration 80",27%
same,% inhibition Apol 40',"DRC-2, 40', concentration 2.5",3.34%
same,% inhibition Apol 40',"DRC-2, 40', concentration 5",11%
same,% inhibition Apol 40',"DRC-2, 40', concentration 10",28%
same,% inhibition Apol 40',"DRC-2, 40', concentration 20",33%
same,% inhibition Apol 40',"DRC-2, 40', concentration 40",41%
same,% inhibition Apol 40',"DRC-2, 40', concentration 80",41%
same,% inhibition ApPOL 90',"DRC-2, 90', concentration 2.5",3.4%
same,% inhibition ApPOL 90',"DRC-2, 90', concentration 5",11%
same,% inhibition ApPOL 90',"DRC-2, 90', concentration 10",27%
same,% inhibition ApPOL 90',"DRC-2, 90', concentration 20",30%
same,% inhibition ApPOL 90',"DRC-2, 90', concentration 40",42%
same,% inhibition ApPOL 90',"DRC-2, 90', concentration 80",41%
same,% inhibition apPOL 180',"DRC-2, 180', concentration 2.5",0.149%
same,% inhibition apPOL 180',"DRC-2, 180', concentration 5",5%
same,% inhibition apPOL 180',"DRC-2, 180', concentration 10",17%
same,% inhibition apPOL 180',"DRC-2, 180', concentration 20",18%
same,% inhibition apPOL 180',"DRC-2, 180', concentration 40",32%
same,% inhibition apPOL 180',"DRC-2, 180', concentration 80",32%
same,% inhibition Apol 40',conc 5 (unit not given); 40'; DRC-2,11%
same,% inhibition ApPOL 90',conc 5 (unit not given); 90'; DRC-2,11%
same,% inhibition ApPOL 90',conc 10 (unit not given); 90'; DRC-2,27%
same,% inhibition Apol 40',conc 40 (unit not given); 40'; DRC-2,41%
same,% inhibition apPOL 180',conc 40 (unit not given); 180'; DRC-2,32%
same,% inhibition Apo pol 5',conc 80 (unit not given); 5'; DRC-2,27%
same,% inhibition Apol 40',conc 80 (unit not given); 40'; DRC-2,41%
same,% inhibition ApPOL 90',conc 80 (unit not given); 90'; DRC-2,41%
same,% inhibition apPOL 180',conc 80 (unit not given); 180'; DRC-2,32%
same,DNA Pol,"primary screen hit value, DNA Pol (186 hits); 90 min, 10 µM",33
CCc1ccccc1NC(=O)c1ccc(-c2ncccc2NC(C)=O)cc1 [KU0203112],% inhibition Apo pol 10',DRC-1; concentration 2.5; 10',16.2237%
same,% inhibition Apol 90',DRC-1; concentration 2.5; 90',2.255%
same,% inhibition apPOL 180',DRC-1; concentration 2.5; 180',-4.969%
same,% inhibition Apo pol 10',DRC-1; concentration 5; 10',20.5956%
same,% inhibition Apol 90',DRC-1; concentration 5; 90',6.528%
same,% inhibition apPOL 180',DRC-1; concentration 5; 180',-1.7806%
same,% inhibition Apo pol 10',DRC-1; concentration 10; 10',40.7013%
same,% inhibition Apol 90',DRC-1; concentration 10; 90',22.2992%
same,% inhibition apPOL 180',DRC-1; concentration 10; 180',9.63%
same,% inhibition Apo pol 10',DRC-1; concentration 20; 10',66.0159%
same,% inhibition Apol 90',DRC-1; concentration 20; 90',44.8534%
same,% inhibition apPOL 180',DRC-1; concentration 20; 180',25.9288%
same,% inhibition Apo pol 10',DRC-1; concentration 40; 10',83.2179%
same,% inhibition Apol 90',DRC-1; concentration 40; 90',72.954%
same,% inhibition apPOL 180',DRC-1; concentration 40; 180',58.4495%
same,% inhibition Apo pol 10',DRC-1; concentration 80 (unit not given); 10',89.6121%
same,% inhibition Apol 90',DRC-1; concentration 80; 90',90.3611%
same,% inhibition apPOL 180',DRC-1; concentration 80; 180',89.009%
same,% inhibition ApPOL 90',DRC-2; 90'; concentration 40,70%
same,% inhibition apPOL 180',DRC-2; 180'; concentration 40,70%
same,% inhibition Apo pol 5',DRC-2; concentration 2.5; 5',0.547%
same,% inhibition Apol 40',DRC-2; concentration 2.5; 40',0.556%
same,% inhibition ApPOL 90',DRC-2; concentration 2.5; 90',-1.65%
same,% inhibition apPOL 180',DRC-2; concentration 2.5; 180',-5.44%
same,% inhibition Apo pol 5',DRC-2; concentration 5; 5',5.51%
same,% inhibition Apol 40',DRC-2; concentration 5; 40',7%
same,% inhibition ApPOL 90',DRC-2; concentration 5; 90',5.44%
same,% inhibition apPOL 180',DRC-2; concentration 5; 180',-1.68%
same,% inhibition Apo pol 5',DRC-2; concentration 10; 5',27%
same,% inhibition Apol 40',DRC-2; concentration 10; 40',28%
same,% inhibition ApPOL 90',DRC-2; concentration 10; 90',25%
same,% inhibition apPOL 180',DRC-2; concentration 10; 180',14%
same,% inhibition Apo pol 5',DRC-2; concentration 20; 5',43%
same,% inhibition Apol 40',DRC-2; concentration 20; 40',54%
same,% inhibition ApPOL 90',DRC-2; concentration 20; 90',52%
same,% inhibition apPOL 180',DRC-2; concentration 20; 180',41%
same,% inhibition Apo pol 5',DRC-2; concentration 40; 5',50%
same,% inhibition Apol 40',DRC-2; concentration 40; 40',68%
same,% inhibition ApPOL 90',DRC-2; concentration 40; 90',70%
same,% inhibition apPOL 180',DRC-2; concentration 40; 180',70%
same,% inhibition Apo pol 5',DRC-2; concentration 80; 5',47%
same,% inhibition Apol 40',DRC-2; concentration 80; 40',69%
same,% inhibition ApPOL 90',DRC-2; concentration 80; 90',74%
same,% inhibition apPOL 180',DRC-2; concentration 80; 180',77%
same,DNA Pol,"primary screen value of the 186 hits; unit not given; 90 min, 10 µM",26
same,DNA Pol,"primary screen value; head prints only 'DNA Pol'; 90 min, 10 µM",26

# — PMC9090415, “Discovery of small molecule inhibitors of Plasmodium falciparum apicoplast DNA polymerase” (Journal of Enzyme Inhibition and Medicinal Chemistry, 2022)
